# Reference: patent US12479840B2, “HMG-CoA reductase degradation inducing compound” (Uppthera, priority 2020, dated 2025)
# Biological target: T1, HMG-CoA reductase (Homo sapiens, UniProt P04035)
# T1 construct: endogenous in cells; host or cells: HepG2 (Korea Cell Line Bank)
# T1 sequence (P04035 1-888): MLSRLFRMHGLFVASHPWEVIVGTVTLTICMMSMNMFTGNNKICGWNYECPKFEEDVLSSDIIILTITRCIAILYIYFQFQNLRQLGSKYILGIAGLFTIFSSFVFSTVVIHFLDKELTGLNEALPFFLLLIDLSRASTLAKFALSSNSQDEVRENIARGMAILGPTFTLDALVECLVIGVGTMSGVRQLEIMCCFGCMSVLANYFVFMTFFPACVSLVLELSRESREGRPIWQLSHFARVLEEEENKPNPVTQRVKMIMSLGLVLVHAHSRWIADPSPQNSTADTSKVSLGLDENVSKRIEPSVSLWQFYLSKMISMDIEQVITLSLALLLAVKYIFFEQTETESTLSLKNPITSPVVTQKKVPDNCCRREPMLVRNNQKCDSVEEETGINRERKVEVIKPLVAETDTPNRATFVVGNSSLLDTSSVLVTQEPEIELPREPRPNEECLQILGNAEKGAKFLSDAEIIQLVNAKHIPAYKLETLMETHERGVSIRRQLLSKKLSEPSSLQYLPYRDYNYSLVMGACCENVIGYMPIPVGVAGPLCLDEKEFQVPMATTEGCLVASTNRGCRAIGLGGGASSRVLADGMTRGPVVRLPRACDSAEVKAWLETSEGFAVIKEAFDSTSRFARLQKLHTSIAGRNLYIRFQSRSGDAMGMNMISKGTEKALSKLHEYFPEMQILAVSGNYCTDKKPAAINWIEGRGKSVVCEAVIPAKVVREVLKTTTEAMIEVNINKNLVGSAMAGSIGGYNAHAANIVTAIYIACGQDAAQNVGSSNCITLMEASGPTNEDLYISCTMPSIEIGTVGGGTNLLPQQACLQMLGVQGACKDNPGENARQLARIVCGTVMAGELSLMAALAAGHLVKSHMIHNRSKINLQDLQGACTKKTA
# Assay: HMG-CoA reductase (HMGCR) degradation in HepG2 cells by western blotting
# Type: cell-based
# Conditions: treated for 18 hours, ratio of HMG-CoA reductase to GAPDH, read-out: DC50
# How it was run: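 HepG2 cells (passage P105–P110) treated 18 hours with compounds in 10-point three-fold dilutions from 3 μM. RIPA lysates (15 μg protein, BCA-quantified) run on SDS-PAGE and immunoblotted for HMGCR (1:500) with GAPDH (1:20000) as loading control, primary antibodies 16 hours at 4° C.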
row,Compound,DC50 [nM]
1,"C[C@H]1C=C2C=C[C@H](C)[C@H](CC[C@@H]3C[C@@H](O[Si](C)(C)C(C)(C)C)CC(=O)O3)[C@H]2[C@@H](OC(=O)NCCCOCCCOCCCNc2cccc3c2C(=O)N(C2CCC(=O)NC2=O)C3=O)C1 (stereo partly drawn) [Compound 94, (1S,3R,7S,8S,8aR)-8-(2-((2R,4R)-4-((tert-butyldimethylsilyl)oxy)-6-oxotetrahydro-2H-pyran-2-yl)ethyl)-3,7-dimethyl-1,2,3,7,8,8a-hexahydronaphthalen-1-yl (3-(3-(3-((2-(2,6-dioxopiperidin-3-yl)-1,3-dioxoisoindolin-4-yl)amino)propoxy)propoxy)propyl)carbamate]",< 50
2,"C[C@H]1C=C2C=C[C@H](C)[C@H](CC[C@@H]3C[C@@H](O[Si](C)(C)C(C)(C)C)CC(=O)O3)[C@H]2[C@@H](OC(=O)NCCCCCCCC(=O)Nc2cccc3c2C(=O)N(C2CCC(=O)NC2=O)C3=O)C1 (stereo partly drawn) [Compound 76, (1S,3R,7S,8S,8aR)-8-(2-((2R,4R)-4-((tert-butyldimethylsilyl)oxy)-6-oxotetrahydro-2H-pyran-2-yl)ethyl)-3,7-dimethyl-1,2,3,7,8,8a-hexahydronaphthalen-1-yl (8-((2-(2,6-dioxopiperidin-3-yl)-1,3-dioxoisoindolin-4-yl)amino)-8-oxooctyl)carbamate]",< 50
3,Cc1ncsc1-c1ccc(CNC(=O)[C@@H]2C[C@@H](O)CN2C(=O)[C@@H](NC(=O)COCCOCCOCCNC(=O)CCC(C)(C)C(=O)O[C@H]2C[C@@H](C)C=C3C=C[C@H](C)[C@H](CC[C@@H]4C[C@@H](O)CC(=O)O4)[C@H]32)C(C)(C)C)cc1 [Compound 10],< 50
4,"C[C@H]1C=C2C=C[C@H](C)[C@H](CC[C@@H]3C[C@@H](O[Si](C)(C)C(C)(C)C)CC(=O)O3)[C@H]2[C@@H](OC(=O)NCCOCCOCCOCCNc2ccccc2)C1 [Compound 45, (1S,3R,7S,8S,8aR)-8-(2-((2R,4R)-4-((tert-butyldimethylsilyl)oxy)-6-oxotetrahydro-2H-pyran-2-yl)ethyl)-3,7-dimethyl-1,2,3,7,8,8a-hexahydronaphthalen-1-yl (2-(2-(2-(2-(phenylamino)ethoxy)ethoxy)ethoxy)ethyl)carbamate]",> 500
5,"Cc1ncsc1-c1ccc(CNC(=O)[C@@H]2C[C@@H](O)CN2C(=O)[C@@H](NC(=O)COCCOCCOCCOCCOCCNC(=O)O[C@H]2C[C@@H](C)C=C3C=C[C@H](C)[C@H](CC[C@@H]4C[C@@H](O)CC(=O)O4)[C@H]32)C(C)(C)C)cc1 [Compound 18, (1S,3R,7S,8S,8aR)-8-(2-((2R,4R)-4-hydroxy-6-oxotetrahydro-2H-pyran-2-yl)ethyl)-3,7-dimethyl-1,2,3,7,8,8a-hexahydronaphthalen-1-yl ((S)-19-((2S,4R)-4-hydroxy-2-((4-(4-methylthiazol-5-yl)benzyl)carbamoyl)pyrrolidine-1-carbonyl)-20,20-dimethyl-17-oxo-3,6,9,12,15-pentaoxa-18-azahenicosyl)carbamate]",< 50

# Further lines, results first:
row,DC50 [nM],Compound
1,< 50,"Cc1ncsc1-c1ccc(CNC(=O)[C@H]2C[C@H](O)CN2C(=O)[C@H](NC(=O)C2(F)CC2)C(C)(C)C)c(OCC(=O)N2CCC(CCCNC(=O)O[C@H]3C[C@@H](C)C=C4C=C[C@H](C)[C@H](CC[C@@H]5C[C@@H](O)CC(=O)O5)[C@H]43)CC2)c1 [Compound 168, (1S,3R,7S,8S,8aR)-8-(2-((2R,4R)-4-hydroxy-6-oxotetrahydro-2H-pyran-2-yl)ethyl)-3,7-dimethyl-1,2,3,7,8,8a-hexahydronaphthalen-1-yl (3-(1-(2-(2-(((2R,4S)-1-((R)-2-(1-fluorocyclopropane-1-carboxamido)-3,3-dimethylbutanoyl)-4-hydroxypyrrolidine-2-carboxamido)methyl)-5-(4-methylthiazol-5-yl)phenoxy)acetyl)piperidin-4-yl)propyl)carbamate]"
2,< 50,"C[C@H]1C=C2C=C[C@H](C)[C@H](CC[C@@H](O)C[C@@H](O)CC(=O)O)[C@H]2[C@@H](OC(=O)NCCOCCOCCOCCNc2cccc3c2C(=O)N(C2CCC(=O)NC2=O)C3=O)C1 (stereo partly drawn) [Compound 107, (3R,5R)-7-((1S,2S,6R,8S,8aR)-8-(((2-(2-(2-(2-((2-(2,6-dioxopiperidin-3-yl)-1,3-dioxoisoindolin-4-yl)amino)ethoxy)ethoxy)ethoxy)ethyl)carbamoyl)oxy)-2,6-dimethyl-1,2,6,7,8,8a-hexahydronaphthalen-1-yl)-3,5-dihydroxyheptanoic acid]"
